Data set [1] has as its system rSeV-Luc (recombinant Sendai virus). In words: Inactivation assay with or without cyclodextrin, rSeV-Luc, luciferase activity in MK2 cells. Format: cell-based. As to the method: MK2 (monkey) cells were grown at 37° C. in DMEM containing 5% of bovine serum albumin (BSA) until they reached 70% of confluence.
A recombinant Sendai virus was used, rSeV-Luc, which encodes the Photinus pyralis luciferase gene.
The nPLV preparations were diluted in PBS to the indicated concentrations. The diluted nPLVs were then mixed with the viruses, either alone (no cyclodextrin) or in combination with 0.5 mM (final concentration) of cyclodextrin, in a volume of 100 μl. The virus-nPLV mixtures were incubated at room temperature for 20 minutes with shaking. About 10^5 viral particles were used.
Following incubation, the mixtures were diluted to […] in DMEM without BSA and directly added onto cells. Infections were performed at 33° C. for one hour, and then infectious mixes were removed. Cells were washed once with DMEM without BSA, 10 ml of DMEM with 1% BSA were added and incubation was further performed at 37° C. for 36 hours. Experiment was done in duplicates.
MK2 cells were lysed and luciferase activity was determined using the Promega's Luciferase Assay System. Measurements were done with TD-20/20 luminometer (Turner Designs).

In the next data set the test system is cellular integrity. The following applies: 50-100 mM, range of concentrations used in most in vitro experiments; cited from earlier work.

Entries after “also recorded” stand apart in the source; their conditions may differ.

With `OC[C@H]1O[C@@H]2O[C@H]3[C@H](O)[C@@H](O)[C@@H](O[C@H]4[C@H](O)[C@@H](O)[C@@H](O[C@H]5[C@H](O)[C@@H](O)[C@@H](O[C@H]6[C@H](O)[C@@H](O)[C@@H](O[C@H]7[C@H](O)[C@@H](O)[C@@H](O[C@H]8[C@H](O)[C@@H](O)[C@@H](O[C@H]1[C@H](O)[C@H]2O)O[C@@H]8CO)O[C@@H]7CO)O[C@@H]6CO)O[C@@H]5CO)O[C@@H]4CO)O[C@@H]3CO` [β-cyclodextrin], the “effect of β-cyclodextrin on the viral inactivation by nPLVs” value in data set [1] (0.5 mM β-cyclodextrin with nPLVs composed of PCE with 0.1% mol of oleic acid (OA), nPLVs 0.02%, 0.05% and 0.1%, FIG. 2A) is recorded as “greatly enhances the viral inactivation; also recorded: strong synergistic effect”. Also, the “concentration at which a direct effect of β-cyclodextrin alone on the viral particles is observed” value in data set [1] (in absence of nPLVs, FIG. 2B) is “higher than 5 mM”. Besides, the “effect on cellular integrity” value in the data set on cellular integrity was “detrimental for cellular integrity and can induce cell death”.
